Patent publication US20030022821A1, “Bioactive peptides” (priority 1998, published 2003)
≈ marks a conversion by molar mass, not a printed value. Like-named read-outs stand apart in the source and are kept apart here. Ends that are not written are not given here. Peptide text beside a SMILES is read from it. * marks the point of attachment. Acm = CC(=O)NC*

Tests used:
Type in all cases: cell-based
[1] = system: human red blood cells; assay: Hemolytic assay; conditions: for % Hemolysis 10 μg/ml / % Hemolysis 100 μg/ml: red cells of human
Protocol: The hemolytic activities of the peptides were determined using fresh human red blood cells. 8 ml blood was taken from a healthy person. 4 ml blood was transferred to a polycarbonate tube containing heparin to a final concentration of 10 U/ml, and the remaining 4 ml blood was transferred to a glass tube containing EDTA with final concentration of 15% EDTA. The erythrocytes were isolated from heparin-treated blood by centrifugation in 1500 rpm for 10 min and washed three times with phosphate-buffered saline (PBS) to remove plasma and buffy coat. The cell pellet was resuspended in PBS to make the final volume of 4 ml. The peptide was diluted to a concentration of 2 mg/ml and 0.1 mg/ml. The peptide was further diluted to the concentrations as stated in Table 15. For each tube PBS was added first, then RBCs and peptide solutions. The hematocrit in the blood treated with EDTA was determined after 30 min with Sysmex K-1000, and the resuspended RBCs were diluted into 10% hematocrit. RBCs in PBS (1%) with and without peptides (Table 15) were incubated in a shaker at […] for 1 hour and then centrifuged at 4000 rpm for 5 min. The supernatant were carefully transferred to new polycarbonate tubes and the absorbance of the supernatant was measured at 540 nm. Baseline hemolysis was hemoglobin released in the presence of PBS, and 100% hemolysis was hemoglobin released in the presence of 0.1% Triton X-100.

[2] = system: Staphylococcus aureus ATCC 25923
Protocol: (§1) The bacterial strains used were: Escherichia coli ATCC 25922 and Staphylococcus aureus ATCC 25923. All strains were stored at −70° C. The bacteria were grown in 2% Bacto Peptone water (Difco 1807-17-4). All tests were performed with bacteria in mid-logarithmic growth phase. Determination of the minimum inhibitory concentration (MIC) of the peptides for bacterial strains were performed in 1% Bacto Peptone water. A standard microdilution technique with an inoculum of 2×10^6 CFU/ml was used. All assays were performed in triplets. Since the peptides are positively charged and therefore could adhere to the plastic wells, we controlled the actual concentration of the peptides in the solution by HPLC. There was no difference between the concentration of the peptides before or after adding the solution to the plastic wells.

[3] = system: Escherichia coli ATCC 25922
Protocol: as §1

MIC S. aureus ([2]; ATCC 25923) [µg/mL] | MIC E. coli ([3]; ATCC 25922) [µg/mL] | Compound | % Hemolysis 10 μg/ml [1] [%] | % Hemolysis 100 μg/ml [1] [%] | other results
– | – | CSCC[C@@H](NC(=O)[C@@H](CCCNC(=N)N)NC(=O)[C@@H](Cc1c[nH]c2ccccc12)NC(=O)[C@@H](CCC(N)=O)NC(=O)[C@@H](Cc1c[nH]c2ccccc12)NC(=O)[C@@H](CCCNC(=N)N)NC(=O)[C@@H](CCCNC(=N)N)NC(=O)[C@@H](CSCNC(C)=O)NC(=O)[C@@H](CCCCN)NC(=O)[C@H](N)Cc1ccccc1)C(=O)N[C@H](CCCCN)C(=O)N[C@H](CCCCN)C(=O)N[C@H](CC(C)C)C(=O)NCC(=O)N[C@H](C)C(=O)O [Enantio LFB 17-31] | 3.05 | – | MIC S. aureus ([2]; Table 3, unit assumed): 60 µg/mL (≈ 29 µM); MIC E. coli ([3]; Table 3): 7.5 µg/mL (≈ 3.63 µM)
>200 | >200 | CSCC[C@H](NC(=O)[C@H](CCCNC(=N)N)NC(=O)[C@H](Cc1c[nH]c2ccccc12)NC(=O)[C@H](CCC(N)=O)NC(=O)[C@H](C)NC(=O)[C@H](CCCNC(=N)N)NC(=O)[C@H](CCCNC(=N)N)NC(=O)[C@H](CSCNC(C)=O)NC(=O)[C@H](CCCCN)NC(=O)[C@@H](N)Cc1ccccc1)C(=O)N[C@@H](CCCCN)C(=O)N[C@@H](CCCCN)C(=O)N[C@@H](CC(C)C)C(=O)NCC(=O)N[C@@H](C)C(=O)O [LFB A6] (H-FKC(Acm)RRAQWRMKKLGA-OH; N-terminus assumed) | 2.78 | 3.27 | –
– | – | CSCC[C@H](NC(=O)[C@H](CCCNC(=N)N)NC(=O)[C@H](Cc1c[nH]c2ccccc12)NC(=O)[C@H](CCC(N)=O)NC(=O)[C@H](Cc1c[nH]c2ccccc12)NC(=O)[C@H](CCCNC(=N)N)NC(=O)[C@H](Cc1ccccc1)NC(=O)[C@H](CSCNC(C)=O)NC(=O)[C@H](CCCCN)NC(=O)[C@@H](N)Cc1ccccc1)C(=O)N[C@@H](CCCCN)C(=O)N[C@@H](CCCCN)C(=O)N[C@@H](CC(C)C)C(=O)NCC(=O)N[C@@H](C)C(=O)O [LFB F4] (H-FKC(Acm)FRWQWRMKKLGA-OH; N-terminus and C-terminus assumed) | 2.4 | 3.2 | MIC S. aureus ATCC 25923 ([2]; ATCC 25923): 200 µg/mL; MIC S. aureus ATCC 25923 ([2]; Table 1, value in brackets): 100 µM; MIC S. aureus ([2]; Table 12): 200 µg/mL (≈ 97.3 µM); MIC E. coli ATCC 25922 ([3]; ATCC 25922): 20 µg/mL; MIC E. coli ATCC 25922 ([3]; Table 1, value in brackets): 10 µM; MIC E. coli ([3]; Table 12): 20 µg/mL (≈ 9.73 µM)
20 (≈ 8.54 µM) | 25 (≈ 10.7 µM) | CSCC[C@H](NC(=O)[C@H](CCCNC(=N)N)NC(=O)[C@H](Cc1c(S(=O)(=O)c2c(C)c(C)c3c(c2C)CCC(C)(C)O3)[nH]c2ccccc12)NC(=O)[C@H](CCC(N)=O)NC(=O)[C@H](Cc1ccc2ccccc2c1)NC(=O)[C@H](CCCNC(=N)N)NC(=O)[C@H](CCCNC(=N)N)NC(=O)[C@H](CSCNC(C)=O)NC(=O)[C@H](CCCCN)NC(=O)[C@@H](N)Cc1ccccc1)C(=O)N[C@@H](CCCCN)C(=O)N[C@@H](CCCCN)C(=O)N[C@@H](CC(C)C)C(=O)NCC(=O)N[C@@H](C)C(=O)O [LFB Nal6 PMC] | 2.8 | 17.8 | –
75 (≈ 36.1 µM) | 20 (≈ 9.63 µM) | CSCC[C@H](NC(=O)[C@H](CCCNC(=N)N)NC(=O)[C@H](Cc1c[nH]c2ccccc12)NC(=O)[C@H](CCC(N)=O)NC(=O)[C@H](Cc1ccc2ccccc2c1)NC(=O)[C@H](CCCNC(=N)N)NC(=O)[C@H](CCCNC(=N)N)NC(=O)[C@H](CSCNC(C)=O)NC(=O)[C@H](CCCCN)NC(=O)[C@@H](N)Cc1ccccc1)C(=O)N[C@@H](CCCCN)C(=O)N[C@@H](CCCCN)C(=O)N[C@@H](CC(C)C)C(=O)NCC(=O)N[C@@H](C)C(=O)O [LFB Nal6] | 2.2 | 4.4 | –
10 (≈ 4.27 µM) | 20 (≈ 8.54 µM) | CSCC[C@H](NC(=O)[C@H](CCCNC(=N)N)NC(=O)[C@H](Cc1ccc2ccccc2c1)NC(=O)[C@H](CCC(N)=O)NC(=O)[C@H](Cc1c(S(=O)(=O)c2c(C)c(C)c3c(c2C)CCC(C)(C)O3)[nH]c2ccccc12)NC(=O)[C@H](CCCNC(=N)N)NC(=O)[C@H](CCCNC(=N)N)NC(=O)[C@H](CSCNC(C)=O)NC(=O)[C@H](CCCCN)NC(=O)[C@@H](N)Cc1ccccc1)C(=O)N[C@@H](CCCCN)C(=O)N[C@@H](CCCCN)C(=O)N[C@@H](CC(C)C)C(=O)NCC(=O)N[C@@H](C)C(=O)O [LFB Nal8 PMC] | 6.96 | 18.86 | –
50 (≈ 24.1 µM) | 10 (≈ 4.82 µM) | CSCC[C@H](NC(=O)[C@H](CCCNC(=N)N)NC(=O)[C@H](Cc1ccc2ccccc2c1)NC(=O)[C@H](CCC(N)=O)NC(=O)[C@H](Cc1c[nH]c2ccccc12)NC(=O)[C@H](CCCNC(=N)N)NC(=O)[C@H](CCCNC(=N)N)NC(=O)[C@H](CSCNC(C)=O)NC(=O)[C@H](CCCCN)NC(=O)[C@@H](N)Cc1ccccc1)C(=O)N[C@@H](CCCCN)C(=O)N[C@@H](CCCCN)C(=O)N[C@@H](CC(C)C)C(=O)NCC(=O)N[C@@H](C)C(=O)O [LFB Nal8] | 3 | 4.7 | –
20 (≈ 9.63 µM) | 20 (≈ 9.63 µM) | CSCC[C@H](NC(=O)[C@H](CCCNC(=N)N)NC(=O)[C@H](Cc1c[nH]c2ccccc12)NC(=O)[C@H](CCC(N)=O)NC(=O)[C@H](Cc1c[nH]c2ccccc12)NC(=O)[C@H](CCCNC(=N)N)NC(=O)[C@H](CCCNC(=N)N)NC(=O)[C@H](Cc1c[nH]c2ccccc12)NC(=O)[C@H](CCCCN)NC(=O)[C@@H](N)Cc1ccccc1)C(=O)N[C@@H](CCCCN)C(=O)N[C@@H](CCCCN)C(=O)N[C@@H](CC(C)C)C(=O)NCC(=O)N[C@@H](C)C(=O)O [LFB W3, H2N-Phe-Lys-Trp-Arg-Arg-Trp-Gln-Trp-Arg-Met-Lys-Lys-Leu-Gly-Ala-COOH] | 2.3 | 3.8 | MIC S. aureus ([2]; Table 6, unit assumed): 20 µg/mL (≈ 9.63 µM); MIC E. coli ([3]; Table 6): 20 µg/mL (≈ 9.63 µM)
25 (≈ 11.4 µM) | 20 (≈ 9.11 µM) | CSCC[C@H](NC(=O)[C@H](CCCNC(=N)N)NC(=O)[C@H](Cc1c[nH]c2ccccc12)NC(=O)[C@H](CCC(N)=O)NC(=O)[C@H](Cc1c[nH]c2ccccc12)NC(=O)[C@H](CCCNC(=N)N)NC(=O)[C@H](CCCNC(=N)N)NC(=O)[C@H](CSCNC(C)=O)NC(=O)[C@H](CCCCN)NC(=O)[C@@H](N)Cc1ccccc1)C(=O)N[C@@H](CCCCN)C(=O)N[C@@H](CCCCN)C(=O)N[C@@H](CC(C)C)C(=O)N[C@@H](Cc1c[nH]c2ccccc12)C(=O)N[C@@H](C)C(=O)O [LFB W14, H2N-Phe-Lys-Cys-Arg-Arg-Trp-Gln-Trp-Arg-Met-Lys-Lys-Leu-Trp-Ala-COOH] (H-FKC(Acm)RRWQWRMKKLWA-OH) | 3 | 4.1 | MIC S. aureus ([2]; Table 6, unit assumed): 25 µg/mL (≈ 11.4 µM); MIC E. coli ([3]; Table 6): 20 µg/mL (≈ 9.11 µM)
– | – | H-FKARRWAWRMKKLGA-OH [LFB A3, 7] | – | – | EC 50 [1]: >1000 µg/mL; EC50 [1]: > 525 µM
– | – | YRMWRWAWRWR-NH2 [LFB 17-27 A7 M3 R2, 11 W4, 10 Y1 NH2] | – | – | EC50 [1]: 291 ± 91 µM; EC 50 ([1]; Table 13, toxicity (hemolysis)): 510 ± 160 µg/mL
5 | 10 | YRWARWWRR-NH2 [LFM 17-25 A4R2,8, 9W3, 7Y1NH2] | – | – | –
